Results taken from patent US20230364112A1, “Use of Antcin H and Its Derivatives for Treating Central Nervous System Diseases” (ALPS BIOTECH CO., LTD., priority 2020, published 2023).

What was measured:
STHdh^Q109 cells [1] = test: Cell viability analysis (CCK-8 assay) in a cell model of HD; type: cell-based, mice; details: 24 h, vs vehicle-treated cells
Description: (§1) Conditionally immortalized wild-type STHdh^Q7 striatal neuronal progenitor cells expressing endogenous normal htt (referred to as wild-type striatal cells), and homozygous mutant STHdh^Q109 striatal neuronal progenitor cells from homozygous STHdh^Q109 knock-in mice expressing mutant htt with 109 glutamines (referred to as mutant striatal cells). STHdh^Q7 and STHdh^Q109 cells were generous gifts from Dr. Elena Cattaneo and Marta Valenza (Department of pharmacological sciences and center for stem cell research, University of Milano, Italy). These cells were maintained in an incubation chamber at 33° C. in Dulbecco's modified Eagle's medium supplemented with 10% fetal bovine serum.
STHdh^Q7 and STHdh^Q109 cells were treated with 5 or 10 μM Antcin H or vehicle (DMSO) for 24 h. STHdh^Q7 and STHdh^Q109 cells viability was quantified by the CCK-8 assay. The survival rate of the indicated cells was normalized to those survival rate of vehicle-treated STHdh^Q7 cells.
To investigate the neuroprotective potential of Antcin H in CNS disease, the present example used striatal cell line as an in vitro model of Huntington's disease. STHdh^Q109 cells carry the polyQ-expanded mouse gene Htt, which encodes 109 CAG repeats in the Htt gene. Compared with STHdh^Q109 cells, the control cell line (STHdh^Q7) only carry 7 copies of the CAG repeat. […]

STHdh^Q109 cells [2] = test: Intracellular ROS analysis (CM-H2DCFDA) in a cell model of HD; type: cell-based, mice; details: 5 or 10 μM Antcin H, H2DCFDA staining
Description: as §1
STHdh^Q7 and STHdh^Q109 cells were treated with 5 or 10 μM Antcin H or vehicle (DMSO) in the presence of 10 μM intracellular ROS indicator fluorescent probe CM-H2DCFDA (Molecular Probes, Inc., Eugene, Oregon, USA) for 1 h. Intracellular ROS (Reactive Oxygen Species) levels were measured by detecting the fluorescence intensity (Excitation/Emission: 488 nm/510 nm) using a fluorescence plate reader (Fluoroskan Ascent; Thermo Electron Corporation, Woburn, MA, USA). J774A.1 macrophages were treated with or without 1 μg/ml LPS for 5 h, followed by treated with or without 50 μM Antcin H for 0.5 h. […] The levels of intracellular ROS were measured by CM-H2DCFDA staining and detected by a fluorescence plate reader. […]

R6/2 mice [3] = test: Disease progression of R6/2 transgenic mouse model of HD (body weight, rotarod, survival, clasping); type: in vivo; details: 10 mg/kg oral gavage daily
Procedure: R6/2 mice or wild-type mice were treated with Antcin H (10 mg/kg of body weight) or vehicle by oral gavage daily starting from the age of 7 weeks to the age of 12 weeks. Mice were tested on a Rotarod apparatus three times a week. Motor coordination was assessed using a rotarod apparatus assay (UGO BASILE, Comerio, Italy) at a constant speed (12 rpm) over a period of 2 min. The body weight and the lifespan were monitored weekly.
To investigate the therapeutic potential of Antcin H in the pathogenesis of Huntington's disease, R6/2 mice were used as an animal model of HD. R6/2 mice or wild-type mice were treated with Antcin H (10 mg/kg of body weight) or vehicle by oral gavage daily starting from the age of 7 weeks to the age of 12 weeks. […] WT-Vehicle: n=10; WT-AH: n=10; R6/2-vehicle: n=8; R6/2-AH: n=10. The data are presented as the mean±SEM. Label “a” in chart means p<0.05, between WT and R6/2 mice. Label “b” in chart means p<0.05 vs. R6/2-vehicle.

R6/2 mice [4] = test: Neuronal death in R6/2 mice brain (NeuN immunofluorescence staining, Western blotting); type: in vivo; details: 10 mg/kg oral gavage daily
Procedure: (§2) FIG. 3A: The numbers of neurons (identified by the expression of NeuN; green color) and the level of mutant huntingtin (red color) in the striatum of the mice were analyzed by confocal microscope. Nuclei were stained with Hoechst (blue color).
(§3) The method was according to the previous report. In brief, brain sections were incubated overnight with anti-lba-I polyclonal antibody (1:500), anti-NeuN polyclonal antibody (1:500), anti-NLRP3 monoclonal antibody (1:200) or anti-EM48 monoclonal antibody (1:500) in PBS containing 5% normal goat serum at 4° C. and then incubated with the corresponding secondary antibody for 2 h at room temperature. Nuclei were stained with Hoechst 33258. Slides were mounted and analyzed with a laser confocal microscope.
The present example further investigates the effect of Antcin H in the neuronal death of R6/2 mice brains by immunofluorescence staining. […] R6/2 mice or WT mice were treated with AH (10 mg/kg of body weight) or vehicle by oral gavage daily starting from the age of 7 weeks to the age of 12 weeks. WT-Vehicle: n=6; WT-AH: n=6; R6/2-vehicle: n=6; R6/2-AH: n=6. The data are presented as the mean±SEM. Label “a” in chart means p<0.05, between WT and R6/2 mice. Label “b” in chart means p<0.05 vs. vehicle-treated R6/2 mice.

mutant huntingtin (mHtt) = test: mHtt aggregation in striatum of R6/2 mice (confocal microscope, filter retardation assay); type: in vivo; details: 10 mg/kg oral gavage daily, age 7 to 12 weeks, confocal intensity and filter retardation assay
Procedure: as §2
Brain tissues will be suspended and homogenized in ice-cold RIPA buffer (50 mM Tris-HCl, 0.25% sodium deoxycholate, 1% Triton X-100, 150 mM NaCl, 1 mM phenylmethylsulfonyl fluoride, 1 mM Na3VO4, 0.5 mg/mL aprotinin, 0.1 mM leupeptin, and 4 mM pepstatin), mixed with 2% SDS, and applied to OE66 membrane filters ([…]; Whatman Schleicher and Schuell, Middlesex, UK) through a slot-blot manifold (Bio-Rad, Irvine, CA, USA). The blots will be blocked with 5% skim milk in PBS and incubated overnight with an anti-EM48 antibody (1:500; Millipore Bioscience Research Reagents, Temecula, CA, USA) at 4° C., followed by incubation with the corresponding secondary antibody for 1 h at RT. The immunoreactive bands will be detected by ECL (Pierce, Rockford, IL, USA) and recorded using Kodak XAR-5 film.
The method was according to the previous report. […] Slides were mounted and analyzed with a laser confocal microscope. […]

activated microglia = test: lba-1 immunofluorescence staining for activated microglia in striatum of R6/2 mice; type: in vivo; details: 10 mg/kg oral gavage daily, age 7 to 12 weeks, vs vehicle-treated R6/2 mice
Procedure: (§4) FIG. 4A: The numbers of activated microglia in the striatum were identified by lba1 staining (green color), and the numbers of NLRP3 positive cells in the striatum were identified by NLRP3 staining (red color). Nuclei were stained with Hoechst (blue color).
as §3
(§5) HD commonly associated with inflammation in nervous system and activated microglia. […] FIG. 4 show Antcin H reduced NLRP3 expression in microglia of R6/2 mice. R6/2 mice or WT mice were treated with AH (10 mg/kg of body weight) or vehicle by oral gavage daily starting from the age of 7 weeks to the age of 12 weeks. WT-Vehicle: n=6; WT-AH: n=6; R6/2-vehicle: n=6; R6/2-AH: n=6. The data are presented as the mean±SEM. Label “a” in chart means p<0.05, between WT and R6/2 mice. Label “b” in chart means p<0.05 vs. vehicle-treated R6/2 mice.

NLRP3 = NLRP3 immunofluorescence staining in striatum of R6/2 mice; type: in vivo; details: 10 mg/kg oral gavage daily, age 7 to 12 weeks, vs vehicle-treated R6/2 mice
Procedure: as §4, §3, §5

[5] = test system: NLRP3 inflammasome in BV2 microglia; test: IL-1β ELISA in LPS-primed, ATP-activated BV2 microglia; type: cell-based; details: 1 μg/ml LPS 5 h, 1 or 5 μM Antcin H 0.5 h, 1 mM ATP 24 h
Procedure: (§6) BV2 microglia were treated with or without 1 μg/ml LPS for 5 h, followed by treated with or without 1 or 5 μM Antcin H for 0.5 h. Cells were then activated by 1 mM ATP for 24 h. The IL-1β levels in the supernatants were measured by ELISA, and the levels of iNOS and NLRP3 in the cell lysates were measured by Western blotting. J774A.1 macrophages were treated with or without 1 μg/ml LPS for 5 h, followed by treated with or without Antcin H for 0.5 h. Cells were then activated by 5 mM ATP for 0.5 h. The IL-1β levels in the supernatants were measured by ELISA.
(§7) Microglia are macrophage-like immune cells of the central nervous system. […] (Subhramanyam et al., 2019). In addition, overexpressed IL-1β, the end-product of the NLRP3 inflammasome, plays important roles in the development of many diseases including neurodegenerative diseases (Siew et al., 2019). NLRP3 inflammasome composed of NLRP3, ASC and caspase-1 and controls the maturation and release of IL-1β. NLRP3 inflammasome can be activated by medical relevant stimuli such as ATP from damage tissues and amyloid-β of Alzheimer's disease (Guo et al., 2015). […] BV2 microglia were treated with or without 1 μg/ml LPS for 5 h, followed by treated with or without 1 or 5 μM Antcin H for 0.5 h. Cells were then activated by 1 mM ATP for 24 h. The data are presented as the mean±SEM from three independent experiments. […]

BV2 microglia = test: iNOS and NLRP3 Western blotting in LPS and ATP activated BV2 microglia; type: cell-based; details: 1 μg/ml LPS 5 h, 1 or 5 μM Antcin H 0.5 h, 1 mM ATP 24 h
Procedure: as §6, §7

[6] = test system: NLRP3 inflammasome in J774A.1 macrophages; test: IL-1β ELISA in LPS-primed, ATP-activated J774A.1 macrophages; type: cell-based; details: 1 μg/ml LPS 5 h, Antcin H 0.5 h, 5 mM ATP 0.5 h
Procedure: (§8) FIG. 6A: J774A.1 macrophages were treated with or without 1 μg/ml LPS for 5 h, followed by treated with or without Antcin H for 0.5 h. Cells were then activated by 5 mM ATP for 0.5 h; FIG. 6B: J774A.1 macrophages were treated with or without 1 μg/ml LPS for 5 h, followed by treated with or without 50 μM Antcin H for 0.5 h. Cells were then activated by 5 mM ATP for 0-60 min.
as §6

J774A.1 macrophages = test: ATP-induced intracellular ROS (CM-H2DCFDA) in LPS-primed J774A.1 macrophages; type: cell-based; details: 1 μg/ml LPS 5 h, 50 μM Antcin H 0.5 h, 5 mM ATP 0-60 min
Procedure: as §8
STHdh^Q7 and STHdh^Q109 cells were treated with 5 or 10 μM Antcin H or vehicle (DMSO) in the presence of 10 μM intracellular ROS indicator fluorescent probe CM-H2DCFDA (Molecular Probes, Inc., Eugene, Oregon, USA) for 1 h. Intracellular ROS (Reactive Oxygen Species) levels were measured by detecting the fluorescence intensity (Excitation/Emission: 488 nm/510 nm) using a fluorescence plate reader (Fluoroskan Ascent; Thermo Electron Corporation, Woburn, MA, USA). J774A.1 macrophages were treated with or without 1 μg/ml LPS for 5 h, followed by treated with or without 50 μM Antcin H for 0.5 h. […] The levels of intracellular ROS were measured by CM-H2DCFDA staining and detected by a fluorescence plate reader.
In addition, ROS is one of the crucial elements for NLRP3 inflammasome activation (Tschopp and Schroder, 2010). […] The levels of intracellular ROS were measured by CM-H2DCFDA staining and detected at an excitation wavelength of 488 nm and an emission wavelength of 510 nm on a […]. […]

[7] = age 7 to 12 weeks, vs vehicle-treated R6/2 mice

C=C(CCC(=C)[C@H]1CCC2C3=C(C(=O)[C@H](O)[C@@]21C)[C@@]1(C)CC[C@@H](O)[C@@H](C)C1CC3=O)C(C)C(=O)O (some centres unmarked) [Antcin H]
cell survival ratio (CCK-8 assay) (STHdh^Q109 cells [1]; 5 μM Antcin H): higher survival ratio then vehicle-treated cells
cell survival ratio (CCK-8 assay) (STHdh^Q109 cells [1]; 10 μM Antcin H): higher survival ratio then vehicle-treated cells
intracellular ROS levels (STHdh^Q109 cells [2]): significantly reduced the intracellular ROS levels
rotarod performance (latency to fall) (R6/2 mice [3]; age 7 to 12 weeks, 12 rpm, 2 min): increased latency to fall
body weight (R6/2 mice [3]; [7]): higher weekly weight gain
survival rate (R6/2 mice [3]; at 12 weeks of age): 100%
clasping score (R6/2 mice [3]; at 12 weeks of age, vs vehicle-treated R6/2 mice): lower clasping score
neuronal cells number in the brain (NeuN, confocal microscope) (R6/2 mice [4]; [7]): significant increased
NeuN protein expression in the brain (Western blotting) (R6/2 mice [4]; brain lysates at age of 12 weeks): increasing expression of NeuN protein
mutant huntingtin aggregation in the striatum (mutant huntingtin (mHtt)): reduced the mutant huntingtin aggregation
number of lba-1 positive cells in striatum (activated microglia): decreased
number of NLRP3 positive cells in striatum (NLRP3): significantly reduced the number of NLRP3 positive cells
ATP-induced IL-1β expression (IL-1β levels in the supernatants, ELISA) [5]: reduced ATP-induced IL-1β expression
expression level of NLRP3, Western blotting (BV2 microglia): reduced the expression levels
expression level of inducible nitric oxide synthase (iNOS), Western blotting (BV2 microglia): reduced the expression levels
ATP-induced IL-1β secretion (IL-1β levels in the supernatants, ELISA) [6]: inhibited by Antcin H (FIG. 6A) in a dose-dependent manner
ATP-induced ROS production (J774A.1 macrophages): significantly reduced ATP-induced ROS production
